US20240390298A1, “CYCLOHEXYL BETA-HYDROXY ALKYL AMINES AND MEDICAL USES THEREOF” (ATROGI AB, priority 2021, published 2024)
Structures can show the parent of a compound that is named as a salt.

Tests used:
L6-myotubes [1] = test: Glucose uptake in differentiated L6-myotubes (3H-2-deoxyglucose), compared to isoproterenol; format: cell-based; conditions: agonist 1×10^−5 M, 50 nM 3H-2-deoxyglucose; for Emax at 10 µM: read-out: Biological example 1: glucose uptake, activity compared to that of isoproterenol
Procedure, shortened: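 Serum-starved differentiated L6 myotubes stimulated with agonist at 1×10^−5 M for 1 h 40 min, re-dosed in glucose-free medium for 20 min, then given 50 nM ^3H-2-deoxyglucose for 10 min. Uptake read by β-counting of NaOH lysates; activity expressed relative to isoproterenol.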

L6-myotubes [2] = test: Measurement of intracellular cAMP levels in differentiated L6 cells (alpha screen cAMP kit), compared to isoproterenol; format: cell-based; conditions: Rattus norvegicus, L6, 0.25 h, agonist 1×10^−5 M, 15 min, read-out: Biological example 2: intracellular cAMP levels, activity compared to that of isoproterenol
Procedure, shortened: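 L6 myoblasts were differentiated into myotubes over 7 days in 2% FBS, then serum-starved overnight. Agonist at 1×10^−5 M final was applied for 15 min in HBSS with 1% BSA, 5 mM HEPES and 1 mM IBMX, pH 7.4. After ethanol extraction and lysis, cAMP was quantified by AlphaScreen, with activity expressed relative to isoproterenol.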

Structure (SMILES)	Biological example 1: glucose uptake, activity compared to that of isoproterenol (L6-myotubes [1])	Emax at 10 µM (L6-myotubes [2])	Emax at 10 µM (L6-myotubes [1])
CC(C)(CCC1CCC(O)CC1)NC[C@H](O)c1ccccc1F (stereo partly drawn) [Example 62, (1S,4r)-4-(3-(((R)-2-(2-Fluorophenyl)-2-hydroxyethyl)amino)-3-methyl-butyl)cyclohexan-1-ol]	+ + +	< 25%	
CC(C)(CC[C@H]1CC[C@H](O)CC1)NC[C@H](O)c1cncc(F)c1 [Example 63, (1S,4r)-4-(3-(((R)-2-(5-Fluoropyridin-3-yl)-2-hydroxyethyl)amino)-3-methylbutyl)cyclohexan-1-ol]		< 25%	25 to 50%
CC(C)(CC[C@H]1CC[C@@H](O)CC1)NC[C@H](O)c1cccc(F)c1 [Example 64, (1R,4s)-4-(3-(((R)-2-(3-Fluorophenyl)-2-hydroxyethyl)amino)-3-methyl-butyl)cyclohexan-1-ol]	+ + +	< 25%	
CC(C)(CC[C@H]1CC[C@@H](O)CC1)NC[C@H](O)c1ccccc1F [Example 65, (1R,4s)-4-(3-(((R)-2-(2-Fluorophenyl)-2-hydroxyethyl)amino)-3-methyl-butyl)cyclohexan-1-ol]	+ + +	25 to 50%	
CC(C)(CC[C@H]1CC[C@@H](O)CC1)NC[C@H](O)c1cncc(F)c1 [Example 66, (1R,4s)-4-(3-(((R)-2-(5-Fluoropyridin-3-yl)-2-hydroxyethyl)amino)-3-methylbutyl)cyclohexan-1-ol dihydrochloride]	+ +	< 25%	
CC(=O)N[C@H]1CC[C@H](CNC[C@H](O)c2cccc(F)c2)CC1 [Example 67, N-((1R,4r)-4-((((R)-2-(3-Fluorophenyl)-2-hydroxyethyl)amino)methyl)-cyclohexyl)acetamide]		< 25%	25 to 50%
CC(=O)N[C@H]1CC[C@H](CNC[C@H](O)c2cncc(F)c2)CC1 [Example 68, N-((1R,4r)-4-((((R)-2-(5-Fluoropyridin-3-yl)-2-hydroxyethyl)amino)-methyl)cyclohexyl)acetamide]		< 25%	25 to 50%
O=C(N[C@H]1CC[C@H](CNC[C@H](O)c2cccc(F)c2)CC1)c1ccccc1 [Example 69, N-((1R,4r)-4-((((R)-2-(3-Fluorophenyl)-2-hydroxyethyl)amino)-methyl)cyclohexyl)benzamide]	+ + +	< 25%	
O=C(N[C@H]1CC[C@H](CNC[C@H](O)c2cncc(F)c2)CC1)c1ccccc1 [Example 70, N-((1R,4r)-4-((((R)-2-(5-Fluoropyridin-3-yl)-2-hydroxyethyl)amino)methyl)-cyclohexyl)benzamide]		< 25%	25 to 50%
CS(=O)(=O)N[C@H]1CC[C@H](CNC[C@H](O)c2cccc(F)c2)CC1 [Example 71, N-((1R,4r)-4-((((R)-2-(3-Fluorophenyl)-2-hydroxyethyl)amino)methyl)-cyclohexyl)methanesulfonamide]	+ +	< 25%	
CS(=O)(=O)N[C@H]1CC[C@H](CNC[C@H](O)c2cncc(F)c2)CC1 [Example 72, N-((1R,4r)-4-((((R)-2-(5-Fluoropyridin-3-yl)-2-hydroxyethyl)amino)methyl)-cyclohexyl)methanesulfonamide]		< 25%	25 to 50%
CC(=O)N[C@H]1CC[C@@H](CNC[C@H](O)c2cccc(F)c2)CC1 [Example 73, N-((1S,4s)-4-((((R)-2-(3-Fluorophenyl)-2-hydroxyethyl)amino)-methyl)cyclohexyl)acetamide]	+ +	< 25%	
CC(=O)N[C@H]1CC[C@@H](CNC[C@H](O)c2cncc(F)c2)CC1 [Example 74, N-((1S,4s)-4-((((R)-2-(5-Fluoropyridin-3-yl)-2-hydroxyethyl)amino)-methyl)cyclohexyl)acetamide]		< 25%	25 to 50%
O=C(N[C@H]1CC[C@@H](CNC[C@H](O)c2cccc(F)c2)CC1)c1ccccc1 [Example 75, N-((1S,4s)-4-((((R)-2-(3-Fluorophenyl)-2-hydroxyethyl)amino)methyl)-cyclohexyl)benzamide]	+ +	< 25%	
O=C(N[C@H]1CC[C@@H](CNC[C@H](O)c2cncc(F)c2)CC1)c1ccccc1 [Example 76, N-((1S,4s)-4-((((R)-2-(5-Fluoropyridin-3-yl)-2-hydroxyethyl)amino)methyl)-cyclohexyl)benzamide]	+ +	< 25%	
CS(=O)(=O)N[C@H]1CC[C@@H](CNC[C@H](O)c2cccc(F)c2)CC1 [Example 77]	+ +	< 25%	
CS(=O)(=O)N[C@H]1CC[C@@H](CNC[C@H](O)c2cncc(F)c2)CC1 [Example 78, N-((1S,4s)-4-((((R)-2-(5-Fluoropyridin-3-yl)-2-hydroxyethyl)amino)methyl)-cyclohexyl)methanesulfonamide]	+ +	< 25%	
CC(C)(NC[C@H](O)c1cncc(F)c1)[C@H]1CC[C@H](N)CC1 [Example 79]		< 25%	< 25%
CC(=O)N[C@H]1CC[C@H](C(C)(C)NC[C@H](O)c2cncc(F)c2)CC1 [Example 81, N-((1R,4r)-4-(2-(((R)-2-(5-Fluoropyridin-3-yl)-2-hydroxyethyl)amino)-propan-2-yl)cyclohexyl)acetamide]	+ + +	< 25%	
CC(C)(NC[C@H](O)c1cncc(F)c1)[C@H]1CC[C@H](NS(C)(=O)=O)CC1 [Example 83, N-((1R,4r)-4-(2-(((R)-2-(5-Fluoropyridin-3-yl)-2-hydroxyethyl)amino)-propan-2-yl)cyclohexyl)methanesulfonamide]		< 25%	25 to 50%
CC(=O)N[C@H]1CC[C@H](CC(C)(C)NC[C@H](O)c2cncc(F)c2)CC1 [Example 87, N-((1R,4r)-4-(2-(((R)-2-(5-Fluoropyridin-3-yl)-2-hydroxyethyl)amino)-2-methylpropyl)cyclohexyl)acetamide]	+ + +	< 25%	
CC(C)(C[C@H]1CC[C@H](NS(C)(=O)=O)CC1)NC[C@H](O)c1cncc(F)c1 [Example 89, N-((1R,4r)-4-(2-(((R)-2-(5-Fluoropyridin-3-yl)-2-hydroxyethyl)amino)-2-methylpropyl)cyclohexyl)methanesulfonamide]	+ + +	< 25%	
CC(C)(CC[C@H]1CC[C@H](N)CC1)NC[C@H](O)c1cncc(F)c1 [Example 92, (R)-2-((4-((1r,4S)-4-Aminocyclohexyl)-2-methylbutan-2-yl)amino)-1-(5-fluoropyridin-3-yl)ethan-1-ol]		< 25%	25 to 50%
CC(=O)N[C@H]1CC[C@H](CCC(C)(C)NC[C@H](O)c2cncc(F)c2)CC1 [Example 93, N-((1S,4r)-4-(3-(((R)-2-(5-Fluoropyridin-3-yl)-2-hydroxyethyl)amino)-3-methylbutyl)cyclohexyl)acetamide]	+ + +	< 25%	
CC(C)(CC[C@H]1CC[C@H](NS(C)(=O)=O)CC1)NC[C@H](O)c1cncc(F)c1 [Example 94, N-((1S,4r)-4-(3-(((R)-2-(5-Fluoropyridin-3-yl)-2-hydroxyethyl)amino)-3-methylbutyl)cyclohexyl)methanesulfonamide]	+ +	< 25%	
CC(C)(NC[C@H](O)c1cncc(F)c1)[C@H]1CC[C@@H](C(=O)O)CC1 [Example 97, (1S,4s)-4-(2-(((R)-2-(5-Fluoropyridin-3-yl)-2-hydroxyethyl)amino)propan-2-yl)cyclohexane-1-carboxylic acid]		25 to 50%	25 to 50%
CC(C)(NC[C@H](O)c1cccc(F)c1)[C@H]1CC[C@@H](C(=O)O)CC1 [Example 98, (1S,4s)-4-(2-(((R)-2-(3-Fluorophenyl)-2-hydroxyethyl)amino)propan-2-yl)-cyclohexane-1-carboxylic acid]		< 25%	25 to 50%
COC(=O)[C@H]1CC[C@H](C(C)(C)NC[C@H](O)c2cccc(F)c2)CC1 [Example 99, Methyl (1R,4r)-4-(2-(((R)-2-(3-fluorophenyl)-2-hydroxyethyl)amino)propan-2-yl)cyclohexane-1-carboxylate]	+ + +	< 25%	
COC(=O)[C@H]1CC[C@H](C(C)(C)NC[C@H](O)c2cncc(F)c2)CC1 [Example 100, Methyl (1R,4r)-4-(2-(((R)-2-(5-fluoropyridin-3-yl)-2-hydroxyethyl)amino)-propan-2-yl)cyclohexane-1-carboxylate]	+ + +	< 25%	
CC(C)(NC[C@H](O)c1cccc(F)c1)[C@H]1CC[C@H](C(=O)O)CC1 [Example 101, (1R,4r)-4-(2-(((R)-2-(3-Fluorophenyl)-2-hydroxyethyl)amino)propan-2-yl)cyclohexane-1-carboxylic acid]		< 25%	< 25%
